One experiment concerns the target T1, FabI[G93V] mutant (Escherichia coli, UniProt P0AEK4, G93V).
T1 sequence (P0AEK4 1-262 G93V): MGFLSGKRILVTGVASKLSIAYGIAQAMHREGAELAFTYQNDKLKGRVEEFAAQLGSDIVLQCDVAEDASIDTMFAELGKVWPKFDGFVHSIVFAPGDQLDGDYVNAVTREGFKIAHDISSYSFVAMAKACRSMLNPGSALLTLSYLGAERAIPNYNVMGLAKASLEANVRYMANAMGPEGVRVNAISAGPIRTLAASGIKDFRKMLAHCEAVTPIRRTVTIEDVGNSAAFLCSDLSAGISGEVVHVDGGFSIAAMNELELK
As to conditions: fails to form high-affinity FabI-NAD+-triclosan ternary complex; cited from earlier work.

Experiment [1] has as its system E. coli RJR108 (fabI[G93V]). In words: triclosan MIC on LB agar plates. The class given is cell-based. As to conditions: Escherichia coli.
In the next experiment the target is FabK (Streptococcus pneumoniae, UniProt Q9FBC5). The class given is biochemical.
The subject of experiment [2] is E. coli W3110/pBluescript. The experiment is described as follows: triclosan MIC on LB agar plates. The class given is cell-based. As to conditions: Escherichia coli; E. coli W3110/pBluescript (empty vector); no growth in at least three experiments.
Another experiment deals with E. coli W3110/pfabI. The experiment is described as follows: triclosan MIC on LB agar plates. It is filed as cell-based. As to conditions: Escherichia coli; E. coli W3110/pfabI (His-tag E. coli FabI, multi-copy plasmid).
For a further experiment, the system named is S. pneumoniae R6. In words: triclosan MIC on brain heart infusion plates. It is filed as cell-based. As to conditions: Streptococcus pneumoniae.
Experiment [3] deals with FabI protein from P. aeruginosa (Pseudomonas aeruginosa, UniProt Q9ZFE4). As to conditions: cited from earlier work.
Another experiment deals with B. subtilis. As to conditions: cited from earlier work.
In a further experiment the test system is E. coli expressing FabL. As to conditions: FabL cloned from B. subtilis (ygaA). From the text: However, such limited structural information alone cannot allow the identification since the overall identity of SDRs are low and the family size is large.
Another experiment has as its system P. aeruginosa. As to conditions: contains both FabI and FabK; cited from earlier work.
The next experiment deals with E. coli W3110/pfabK. In words: triclosan MIC on LB agar plates. The class given is cell-based, Escherichia coli. As to conditions: for MIC: Escherichia coli. Here is the method:
FabI is the only enoyl reductase in E. coli and strain RJH13 harbors a fabI(Ts) allele and fails to grow at 42° C. [Heath et al., J. Biol. Chem., 273:30316 (1998)]. […] The pfabK plasmid was then introduced into the wild-type E. coli strain W3110. […] J. Infect. Control, 24:209 (1996)].

The source of these data is patent publication US6613553B1, “Enoyl reductases and methods of use thereof” (priority 2000, dated 2003).

Structures are written as SMILES. Converted amounts (≈) assume the structure as drawn. “Also recorded” adds a separate entry of the source. Read-outs that look alike come from different tables or passages of the source.

FabI protein from P. aeruginosa, sequence (Q9ZFE4 whole entry): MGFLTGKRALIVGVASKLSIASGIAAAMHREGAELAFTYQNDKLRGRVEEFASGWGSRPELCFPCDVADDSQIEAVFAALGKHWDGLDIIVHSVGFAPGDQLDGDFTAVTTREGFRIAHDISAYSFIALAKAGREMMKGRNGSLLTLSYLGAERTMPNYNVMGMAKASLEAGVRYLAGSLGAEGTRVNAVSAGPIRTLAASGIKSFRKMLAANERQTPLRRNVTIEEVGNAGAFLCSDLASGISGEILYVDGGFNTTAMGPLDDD
FabK, sequence (Q9FBC5 entry or part of it): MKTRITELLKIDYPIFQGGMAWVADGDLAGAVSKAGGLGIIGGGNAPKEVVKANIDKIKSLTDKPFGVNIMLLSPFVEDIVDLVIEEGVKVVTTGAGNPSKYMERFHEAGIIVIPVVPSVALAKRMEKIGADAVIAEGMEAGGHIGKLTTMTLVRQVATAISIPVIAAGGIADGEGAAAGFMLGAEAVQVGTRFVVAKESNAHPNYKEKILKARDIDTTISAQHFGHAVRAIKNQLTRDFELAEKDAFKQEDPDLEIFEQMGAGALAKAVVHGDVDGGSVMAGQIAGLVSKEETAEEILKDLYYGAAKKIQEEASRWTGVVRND

Take `Oc1cc(Cl)ccc1Oc1ccc(Cl)cc1Cl` [triclosan, 2,4,4′-Trichloro-2′-hydroxydiphenyl ether]: the “inhibition of FabI[G93V] mutant by triclosan” value on FabI[G93V] mutant is given as “still inhibited”. Besides, the MIC is 16 µg/mL (≈ 55.3 µM) in [1]; 0.25 µg/mL (≈ 0.863 µM) in experiment [2]; 2 µg/mL (≈ 6.91 µM) in the experiment with E. coli W3110/pfabI; ~2 µg/mL (≈ 6.91 µM) with S. pneumoniae R6 (R6, S. pneumoniae); 2 µg/mL (≈ 6.91 µM) in the experiment with S. pneumoniae R6 (R6, S. pneumoniae R6, brain heart infusion plates); “about 2 μg/ml” with B. subtilis. Besides, the MIC with E. coli W3110/pfabK (E. coli W3110/pfabK (His-tag S. pneumoniae FabK), read-out: MIC) was > 2000 µg/mL; in the experiment with E. coli W3110/pfabK (pfabK plasmid in strain W3110, read-out: minimum inhibitory concentration (MIC)) it was > 2000 µg/mL. Besides, the “inhibition of FabK activity in the in vitro assay” value at FabK was “did not inhibit”. For the same compound, the “susceptibility of P. aeruginosa FabI to triclosan in vitro” value in [3] was “highly susceptible”. In the experiment with E. coli expressing FabL, the “triclosan resistance of E. coli expressing FabL” value is “complete triclosan resistance”. For the same compound, the “triclosan inhibition of P. aeruginosa” value in the experiment with P. aeruginosa is recorded as “completely refractory”. In the experiment with E. coli W3110/pfabK (E. coli with fabK expression), the “triclosan resistance of E. coli expressing fabK” value is recorded as “completely resistant; also recorded: complete triclosan resistance”.
